Common to all, as to assay type: physicochemical
A short description of data set [1]: Compatibility between the antigen and the STING agonist (HPLC, SDS PAGE of supernatant after centrifugation). As to conditions: groups 2, 3, 4: 45, 15, 5 μg/ml STING agonist aqueous, 20 μg/mL HSV-2 gE-gI, no added Al(OH)3. Here is the method:
(§1) The compatibility between the antigen and the STING agonist was assessed, on the one hand, by determining the amount of the STING agonist recovered (using HPLC) in the supernatant after centrifugation of the formulations described in the above groups 2, 3 and 4, and, on the other hand, by determining the amount and profile of the antigen recovered (using HPLC) in the supernatant after centrifugation of the formulations described in the above groups 2, 3 and 4. The adsorption of the STING agonist and the antigen on Al(OH)3 was similarly assessed by determining the amount of STING agonist and amount and profile of the antigen, respectively, recovered) in the supernatant after centrifugation of the formulations described in the above groups 5, 6, 7 and 8. The concentration of the HSV-2 gE-gI antigen was 20 μg/mL in each group. The precise methodology for preparing the STING agonist and Al(OH)3 formulation was as follows: a solution of Al(OH)3 in water for injection was prepared, the required amount of STING agonist was added, the required amount of HSV-2 gE-gI to have 20 μg/mL in final solution was added. The solution was then mixed for 30 minutes at room temperature. NaCl was added, and the mixture was mixed for 5 minutes.

Data set [2] in a line: Adsorption of the STING agonist and the antigen on Al(OH)3 (supernatant after centrifugation). As to conditions: groups 5, 6, 7, 8: 45, 15, 5 μg/ml STING agonist with 111 μg/ml Al(OH)3, or 15 μg/ml with 35 μg/ml Al(OH)3; antigen 20 μg/mL. Here is the method:
as §1

Data set [3] is described as follows: Minimal amount of Al(OH)3 needed to fully adsorb the STING agonist (fluorometry of supernatant). As to conditions: STING agonist 45 μg/ml, Al(OH)3 0 to 200 μg/ml (by reference to Al3+). The protocol: 1.2 Next, the minimal amount of Al(OH)3 needed to fully adsorb the STING agonist was determined. Compound 1 was used. The amount of the STING agonist was fixed at 45 μg/ml and AL(OH)3 varied from 0 to 200 μg/ml (by reference to Al^3+), so that different ratios STING agonist:Al(OH)3 were tested. The different formulations (as indicated in Table 2) were mixed under agitation for 1 h. Samples were then centrifuged for 10 min at 8000 rpm. The supernatant of the centrifuged samples was then analysed to characterize the amount of STING agonist which was not adsorbed. The quantification was performed by fluorometry.

As to `CCn1nc(C)cc1C(=O)/N=c1\[nH]c2cc(C(N)=O)cc(OC)c2n1C/C=C/Cn1/c(=N/C(=O)c2cc(C)nn2CC)[nH]c2cc(C(N)=O)cc(OCCCOP(=O)(O)O)c21` [Compound 1, 3-(((E)-6-carbamoyl-3-((E)-4-((E)-5-carbamoyl-2-((1-ethyl-3-methyl-1H-pyrazole-5-carbonyl)imino)-7-methoxy-2,3-dihydro-1H-benzo[d]imidazol-1-yl)but-2-en-1-yl)-2-((1-ethyl-3-methyl-1H-pyrazole-5-carbonyl)imino)-2,3-dihydro-1H-benzo[d]imidazol-4-yl)oxy)propyl dihydrogen phosphate], the “amount of STING agonist in supernatant of centrifuged vs non-centrifuged samples” value in data set [1] is recorded as “no aggregation or precipitation occurs in the presence of the antigen”. Moreover, in data set [2], the “adsorption of STING agonist on Al(OH)3 (STING agonist in supernatant)” value is recorded as “entire amount of the STING agonist was adsorbed on Al(OH)3”. For the same compound, in data set [3], the “adsorption of STING agonist on Al(OH)3 (in words)” value is reported as “generally well adsorbed on Al(OH)3” and the “maximum ratio STING agonist to aluminium hydroxide allowing for an optimal adsorption” value was “about 1.5”.

Source of the values: patent US20260083838A1, “Adjuvant Composition Comprising STING Agonists” (GlaxoSmithKline Biologicals SA, priority 2021, published 2026).
